Here are results for 5 cell lines from the supplement of paper PMC10307832.

What all share (experiment): relative viability (nuclei count vs DMSO), 5 days (fraction); higher = more cells survive
Compound in assay [1]: C1=CC(=CC=C1NC(=S)NNC2=C(C=C(C=C2[N+](=O)[O-])C(F)(F)F)[N+](=O)[O-])F [Kobe2602] + Nc1nc2[nH]cc(CCc3ccc(C(=O)N[C@@H](CCC(=O)O)C(=O)O)cc3)c2c(=O)[nH]1 [Pemetrexed] (partner 0.2 µM)
The essentials: (§1)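 A single step with final 0.05% Triton X-100, 1% formaldehyde and 1 ug/ml Hoechst fixed the cells and stained nuclei 5 days after treatment. Lung cancer cell lines in 1536-well plates had been treated by pin tool the day after seeding with one drug alone or a fixed anchor-drug dose plus five library-drug doses (not always all listed) in √10 steps, and nuclei were counted on 4× images. Relative viability is the ratio of nuclei in treated wells to nuclei in vehicle wells, taken as the median of duplicate plates.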

Compound in assay [2]: O[C@@H](COc1cccc2ncccc12)CN1CCN([C@@H]2c3ccccc3[C@@H]3[C@H](c4ccccc42)C3(F)F)CC1 [Zosuquidar] + CC(=O)Nc1cccc(-n2c(=O)n(C3CC3)c(=O)c3c(Nc4ccc(I)cc4F)n(C)c(=O)c(C)c32)c1 [Trametinib] (partner 0.02 µM)
The essentials:
as §1

Compound in assay [3]: C1=CC(=CC=C1NC(=S)NNC2=C(C=C(C=C2[N+](=O)[O-])C(F)(F)F)[N+](=O)[O-])F [Kobe2602] + NC(=O)Nc1cc(-c2cccc(F)c2)sc1C(=O)N[C@H]1CCCNC1 [AZD7762] (partner 0.2 µM)
The essentials: as §1

Compound in assay [4]: C1=CC(=CC=C1NC(=S)NNC2=C(C=C(C=C2[N+](=O)[O-])C(F)(F)F)[N+](=O)[O-])F [Kobe2602] + Nc1ncn([C@H]2C[C@H](O)[C@@H](CO)O2)c(=O)n1 [Decitabine] (partner 2 µM)
The essentials: as §1

With NCI-H2126, the relative viability in assay [1] (first compound 0.2 µM) was found to be 0.647; in assay [1] (first compound 0.6325 µM), 0.67; in assay [1] (first compound 2 µM), 0.629; in assay [1] (first compound 6.325 µM) it was 0.736; in assay [1] (first compound 20 µM), 0.686; in assay [2] (first compound 0.01 µM), 0.505. In addition, the relative viability in assay [2] (first compound 0.03162 µM) was 0.577; in assay [2] (first compound 0.1 µM) it was 0.536; in assay [2] (first compound 0.3162 µM), 0.573; in assay [2] (first compound 1 µM) it was 0.599; in assay [3] (first compound 0.2 µM) it was 1.07; in assay [3] (first compound 0.6325 µM) it was 1.01. The relative viability in assay [3] (first compound 2 µM) amounted to 1.09; in assay [3] (first compound 6.325 µM), 1.08; in assay [3] (first compound 20 µM), 0.988; in assay [4] (first compound 0.2 µM) it was 0.675; in assay [4] (first compound 0.6325 µM), 0.576; in assay [4] (first compound 2 µM) it was 0.551. For the same cell line, the relative viability is 0.619 in assay [4] (first compound 6.325 µM) and 0.577 in assay [4] (first compound 20 µM).

For the cell line NCI-H2170, the relative viability in assay [1] (first compound 0.2 µM) amounted to 0.293; in assay [1] (first compound 0.6325 µM), 0.26; in assay [1] (first compound 2 µM), 0.242; in assay [1] (first compound 6.325 µM), 0.295; in assay [1] (first compound 20 µM), 0.263; in assay [2] (first compound 0.01 µM) it was 0.85. In addition, the relative viability in assay [2] (first compound 0.03162 µM) turned out to be 0.929; in assay [2] (first compound 0.1 µM), 0.868; in assay [2] (first compound 0.3162 µM), 0.952; in assay [2] (first compound 1 µM), 0.869; in assay [3] (first compound 0.2 µM), 0.9; in assay [3] (first compound 0.6325 µM), 0.875. For the same cell line, the relative viability in assay [3] (first compound 2 µM) was found to be 0.869; in assay [3] (first compound 6.325 µM) it was 0.823; in assay [3] (first compound 20 µM), 0.886; in assay [4] (first compound 0.2 µM), 0.492; in assay [4] (first compound 0.6325 µM), 0.455; in assay [4] (first compound 2 µM) it was 0.481. Also, the relative viability in assay [4] (first compound 6.325 µM) amounted to 0.449; in assay [4] (first compound 20 µM), 0.478.

For NCI-H2342, the relative viability stood at 0.734 in assay [1] (first compound 0.2 µM); 0.754 in assay [1] (first compound 0.6325 µM); 0.734 in assay [1] (first compound 2 µM); 0.763 in assay [1] (first compound 6.325 µM); 0.844 in assay [1] (first compound 20 µM); 0.805 in assay [2] (first compound 0.01 µM). Further, the relative viability in assay [2] (first compound 0.03162 µM) amounted to 0.975; in assay [2] (first compound 0.1 µM), 0.757; in assay [2] (first compound 0.3162 µM) it was 0.873; in assay [2] (first compound 1 µM), 0.957; in assay [3] (first compound 0.2 µM), 0.47; in assay [3] (first compound 0.6325 µM), 0.448. In addition, the relative viability in assay [3] (first compound 2 µM) stood at 0.704; in assay [3] (first compound 6.325 µM), 0.461; in assay [3] (first compound 20 µM), 0.655; in assay [4] (first compound 0.2 µM), 0.846; in assay [4] (first compound 0.6325 µM) it was 0.749; in assay [4] (first compound 2 µM), 0.68. The relative viability in assay [4] (first compound 6.325 µM) is 0.658; in assay [4] (first compound 20 µM), 0.728.

For the cell line NCI-H2347, the relative viability is 0.432 in assay [1] (first compound 0.2 µM); 0.467 in assay [1] (first compound 0.6325 µM); 0.427 in assay [1] (first compound 2 µM); 0.443 in assay [1] (first compound 6.325 µM); 0.431 in assay [1] (first compound 20 µM); 0.268 in assay [2] (first compound 0.01 µM). Besides, the relative viability in assay [2] (first compound 0.03162 µM) was found to be 0.268; in assay [2] (first compound 0.1 µM) it was 0.276; in assay [2] (first compound 0.3162 µM), 0.311; in assay [2] (first compound 1 µM), 0.297; in assay [3] (first compound 0.2 µM) it was 0.85; in assay [3] (first compound 0.6325 µM) it was 0.77. The relative viability in assay [3] (first compound 2 µM) came to 0.798; in assay [3] (first compound 6.325 µM) it was 0.713; in assay [3] (first compound 20 µM) it was 0.806; in assay [4] (first compound 0.2 µM), 0.648; in assay [4] (first compound 0.6325 µM) it was 0.618; in assay [4] (first compound 2 µM), 0.594. Further, the figures for the relative viability in assay [4] (first compound 6.325 µM) and in assay [4] (first compound 20 µM) were 0.569 and 0.661, respectively.

For NCI-H2405, the relative viability was found to be 1.07 in assay [1] (first compound 0.2 µM); 1.21 in assay [1] (first compound 0.6325 µM); 0.888 in assay [1] (first compound 2 µM); 1.1 in assay [1] (first compound 6.325 µM); 1.08 in assay [1] (first compound 20 µM); 0.64 in assay [2] (first compound 0.01 µM). The relative viability is 0.621 in assay [2] (first compound 0.03162 µM); 0.617 in assay [2] (first compound 0.1 µM); 0.754 in assay [2] (first compound 0.3162 µM); 0.617 in assay [2] (first compound 1 µM); 0.767 in assay [3] (first compound 0.2 µM); 0.912 in assay [3] (first compound 0.6325 µM). Besides, the relative viability in assay [3] (first compound 2 µM) was 0.664; in assay [3] (first compound 6.325 µM), 0.798; in assay [3] (first compound 20 µM), 0.857; in assay [4] (first compound 0.2 µM), 0.737; in assay [4] (first compound 0.6325 µM), 0.749; in assay [4] (first compound 2 µM), 0.732. In addition, the relative viability in assay [4] (first compound 6.325 µM) came out at 0.745; in assay [4] (first compound 20 µM) it was 0.806.
